Results taken from patent publication US12673025B2, “Pegylated liposomes and uses thereof” (LT BIOPHARMA INC., priority 2024, dated 2026).
In brackets after ≈: the same amount, converted by molar mass. Where two headings read alike, the source gives them in different places.

How the values were obtained:
[1] = test system: Staphylococcus aureus (ATCC29213); assay: MIC broth microdilution assay; assay type: cell-based
Procedure: (§1) For the purpose of antimicrobial activity evaluation of liposome encapsulated nosiheptide, bacteria strain was cultivated in tryptic soy broth (Difco, Becton, Dickinson, Sparks, MD) or brain heart infusion broth (Difco, Becton, Dickinson, Sparks, MD) at 37° C. for 16˜18 hours to the stationary phase. After that, 1000 μl of inoculums were treated to 15 ml tryptic soy broth medium and incubated at 37° C. for 3˜4 hours. Bacteria counts were determined to 5×10^5 CFU/ml for antimicrobial activity via absorbance value of OD600 (1 OD600=1×10^8 CFU/ml) by spectrophotometer. (Ultraspec 2100 Pro, UV/Visible spectrophotometer, Biochrom, Massachusetts, USA)
(§2) The minimum inhibitory concentration values of peptides and liposome encapsulated peptides were evaluated by standard broth microdilution assay which was referred to the guideline of the Clinical and Laboratory Standards Institute (CLSI) (M27-A4., C.a.L.S.I.a.s.t.e.C.d., Reference method for broth dilution antifungal susceptibility testing of yeasts. Clinical and Laboratory Standards Institute, Wayne, PA., 2017). MIC assays were carried out with initial bacterial inoculum of 5×10^5 colony forming units (CFU/ml) in suitable medium. Peptides and liposome encapsulated peptides were added to polystyrene 96-well plates with serial dilution. Vancomycin-Resistant Staphylococcus aureus (VRSA01), Staphylococcus aureus (ATCC29213), Staphylococcus aureus (ATCC33591), Pseudomonas aeruginosa (ATCC278533) were cultivated in TSB broth. MICs was preliminarily defined as the lowest concentration of peptides which inhibited the 90% visible growth of bacteria.
(§3) The concentration-diluted peptide was treated 1 μl in 96-well plates. Subsequently, 99 μl medium which containing 5×10^5 CFU/ml bacteria inoculum were loaded individually in each wells, the serial-diluted concentration of peptide were from 8 to 0.0625 μg/ml. Evaluation of bacterial growth were performed by measuring the OD at 600 nm in a microplate reader (TECAN, Sunrise™) over 16 hours at 37° C. Medium-treated wells were used as the control, and all experiments were carried out in triplicate.

[2] = test system: Staphylococcus aureus (ATCC33591); assay: MIC broth microdilution assay; assay type: cell-based
Procedure: as §1, §2, §3

[3] = test system: Vancomycin-Resistant Staphylococcus aureus (VRSA01); assay: MIC broth microdilution assay; assay type: cell-based
Procedure: as §1, §2, §3

[4] = test system: Pseudomonas aeruginosa ATCC 27853; assay: MIC broth microdilution assay; assay type: cell-based; conditions: for antibacterial activity: Pseudomonas aeruginosa (ATCC278533); for MIC: ATCC27853
Procedure: as §1, §2, §3

[5] = test system: Staphylococcus aureus (ATCC19636); assay: MIC broth microdilution assay; assay type: cell-based
[6] = test system: Staphylococcus aureus (ATCC33591); assay: Murine model of i.v. S. aureus infection (survival); assay type: in vivo, mice; conditions: 20 mg/kg i.v. at 1 and 8 hours after infection
Procedure: Establishment of murine injection model of was assessed to test in vivo efficacy of nosiheptide liposome. Eight-week-old female ICR mice (LASCO, Taipei, Taiwan) were injected i.v. with 1×10^9 CFU/ml of Staphylococcus aureus (ATCC33591) strain in PBS buffer (pH=7.42).

[7] = test system: A549 cells; assay: MTT cell viability assay; assay type: cell-based; conditions: Homo sapiens, A549 lung cancer cells, 24 h
Procedure: (§4) The MTT assay was performed to determine cell viability. 5×10^3 cells per well with 100 μl cell medium were plated in 96-well plates, incubating for 24 hours. Then, the cell medium in plates was removed and each well was treated medium with free nosiheptide or liposome encapsulated nosiheptide in serial-diluted concentration from 3.125 to 50 μM. The medium with PBS buffer was regarded as the control group. After incubating 24 hours, the medium was removed and 100 μl medium-diluted 10% MTT was added in the 96 well plate. After incubation for 3 hours, the MTT solution was removed and the residual formazan crystal was dissolved with 100 μl DMSO (Dimethyl sulfoxide, Sigma Aldrich). The cell viability was determined by measuring the absorbance at 570 nm using ELISA Reader (TECAN, Sunrise™), and the data was calculated by the following formula: […]
(§5) The range of IC50 values was obtained by observing the curve, and all experiments were carried out in triplicate.

[8] = test system: HFW cells; assay: MTT cell viability assay; assay type: cell-based; conditions: HFW normal cells, 24 h
Procedure: as §4, §5

[9] = test system: VRSA 01; assay: Time-kill analysis; assay type: cell-based, Staphylococcus aureus; conditions: ¼×MIC
Procedure: The antimicrobial activity of nosiheptide and nosiheptide liposome against VRSA 01 were assessed by time-kill analysis. VRSA 01 was cultured in TSB medium overnight. After that, fresh TSB was inoculated for growth to mid-logarithmic phase. Bacteria was added at starting inoculum of 5×10^9 CFU/ml. Nosiheptide and nosiheptide liposome were added to final concentrations with 1×MIC and ¼×MIC, the value of MICs were determined in previous experiments. Bacteria with only medium was regarded as the grown control. The cultures were incubated in 37° C. shaking incubator, and aliquots were removed from each tube at 1, 2, 4, 8, 24 hours and serially diluted for CFU enumeration on TSA plates. To compare rates of antibiotic killing, the decline of viable bacteria (Log10 CFU/ml) was evaluated at the measured time points. Experiments were repeated independently in triplicate. The lower limit of detection for the colony counts was 2 log10 CFU/ml.

SMILES	MIC [1]	MIC [2]	MIC ([3]; Staphylococcus aureus)	antibacterial activity [4]	MIC ([4]; Pseudomonas aeruginosa)	MIC [5]	antibacterial activity [5]	survival rate ([6]; end of study (7 days))	mice died during the first two days ([6]; first two days)	MIC ([1]; read-out: MIC)	MIC ([2]; read-out: MIC)	MIC ([3]; Vancomycin Resistant Staphylococcus aureus 01, read-out: MIC)	MIC ([4]; Pseudomonas aeruginosa ATCC 27853, read-out: MIC)	IC50 [7]	IC50 [8]	time to 2-log kill [9]	MIC ([5]; read-out: MIC)
C=C(NC(=O)C(=C)NC(=O)c1csc(C2=N[C@@H]3c4csc(n4)[C@H]4NC(=O)c5csc(n5)[C@H]([C@](C)(O)[C@@H](C)O)NC(=O)[C@H]5CSC(=N5)/C(=C/C)NC(=O)[C@H]([C@@H](C)O)NC(=O)c5csc(n5)[C@]3(CC2)NC(=O)[C@H](C)NC(=O)C(=C)NC(=O)[C@H](C)NC(=O)[C@H]([C@@H](C)CC)N[C@@H]2C=Cc3c([C@H](C)O)cc(nc3[C@H]2O)C(=O)O[C@@H]4C)n1)C(N)=O [Thiostrepton Free, Thiostrepton]	0.625 µg/mL (≈ 0.375 µM)	0.625 µg/mL (≈ 0.375 µM)	0.25 µg/mL (≈ 0.15 µM)	no antibacterial activity	> 8 µg/mL	> 8 µg/mL	no antibacterial activity										
C=C(NC(=O)c1csc(-c2nc3c(cc2O)-c2nc(cs2)C(=O)NC(C(C)O)C(=O)N/C(=C\C)c2nc(cs2)C(=O)NC2CC(O)C(=O)OCc4cccc5[nH]c(c(C)c45)C(=O)SCC(NC(=O)c4csc2n4)c2nc-3cs2)n1)C(N)=O (stereo not shown) [Nosiheptide Free, Nosiheptide]				no antibacterial activity			no antibacterial activity	62.5%	⅜	0.125 µg/mL (≈ 0.102 µM)	0.0625 µg/mL (≈ 0.0511 µM)	0.0625 µg/mL (≈ 0.0511 µM)	> 8 µg/mL	26.2 ± 5.26 µM	28.3 ± 9.23 µM	4 hours	> 8 µg/mL
